Measurements published in publication PMC7767506, “Synthesis and Characterization of Store-Operated Calcium Entry Inhibitors Active in the Submicromolar Range” (International Journal of Molecular Sciences, 2020).
Several values for one entry are separate records, joined by “and”; a condition that tells them apart may be missing. Identical values can stand only once. Like-named read-outs stand apart in the source and are kept apart here.

How the values were obtained:
Format in all cases: cell-based, human
Jurkat cell SOCE = test: Thapsigargin-induced SOCE in Jurkat cells, Indo-1 [Ca2+]cyt measurement; conditions: Jurkat cells; for Ki: 1 µM thapsigargin 10 min, compound added 30 s prior to 1 mM CaCl2
Procedure: To visualize SOCE, we performed a classical protocol: Jurkat cells in Ca^2+-free HBS medium are stimulated by 1 µM thapsigargin (TG, black arrow, Figure 2A) during 600 s to allow the release of Ca^2+ ions by the ER, and the subsequent opening of the store-operated Ca^2+ channels (SOCC). Addition of 1 mM CaCl2 allowed for a massive entry of Ca^2+ ions through SOCC leading thus to an increase of the cytosolic calcium concentration ([Ca^2+]cyt). To test 2-APB and its analogues, different concentrations of compounds were added 30 s prior to Ca^2+ addition.
[Ca^2+]cyt was recorded by a fluorimetric ratio technique as previously described. Leukocytes were spun and resuspended at a density of 10^6 cells/mL in Hepes buffered saline (HBS; 135 mM NaCl, 5.9 mM KCl, 1.2 mM MgCl2, 11.6 mM Hepes, 11.5 mM glucose adjusted to pH 7.3 with NaOH). Due to the presence of 0.002% Ca^2+ in the NaCl, this HBS medium contained 0.1 mM of Ca^2+. Then, cells were incubated in the dark with 4 μM Indo-1-AM for one hour at room temperature under slow agitation. Cells were then centrifuged and resuspended in HBS medium before measurement. To perform the experiments, 0.5 to 1 × 10^6 cells were suspended in 2 mL HBS in a quartz cuvette and inserted into a spectrofluorophotometer (RF-1501 Shimadzu Corporation, Kyoto, Japan) connected to a PC computer (Dell Computer Corp., Montpellier, France). A temperature of 37°C was maintained by circulating water from a bath. Ultraviolet light of 360 nm was used for excitation of Indo-1, and emissions at 405 and 480 nm were recorded. Background and autofluorescence of the cell suspension were subtracted from the recordings. The maximum Indo-1 fluorescence (Rmax) was obtained by adding 1 µM ionomycin to the cell suspension in the presence of 10 mM extracellular CaCl2. Minimum fluorescence was determined following the depletion of external Ca^2+ with 5 mM EGTA.
To visualize the SOCE, cells were placed into the quartz cuvette and 0.5 EGTA was added just before the beginning of the recordings. To induce the SOCE, the cells were treated with 1 μM thapsigargin (TG) during 10 min in Ca^2+-free HBS to induce Ca^2+ release from the ER and the opening of SOCE channels. Then, 1 mM CaCl2 was added to measure the change in [Ca^2+]cyt subsequently to Ca^2+ influx. In the dose-response experiments, different concentrations of 2-APB and its analogs were added 30 s prior to Ca^2+ readdition.

[1] = test system: Mn2+ influx through SOCC in Jurkat cells; test: Mn2+ influx by Indo-1 quenching in Jurkat cells; conditions: 1 µM
Description: As [Ca^2+]cyt results from a balance between Ca^2+ influx and efflux, this decay was due to the activity of the plasma membrane Ca^2+ ATPases (“PMCA”) and the Na^+/Ca^2+ exchanger (“NCX”) counteracting the SOCE (TG has blocked the SERCA activity, impairing Ca^2+ uptake in the ER). To ensure that compound P11 acted on the SOCE and not on the Ca^2+-efflux mechanisms, we next performed a Mn^2+-quenching experiment with Indo-1. Mn^2+ ions enter the cells through SOCC but cannot be pumped outside the cells by PMCA and NCX; once in the cells, Mn^2+ bound to Indo-1 and quenched its fluorescence measured at 430 nm. Thus, an increase of the Mn^2+ influx amplitude was associated with an increase of the Indo-1 quenching speed, and reversely.
After a 10 min TG treatment to open the SOCC, 100 µM MnCl2 was added. Mn^2+ induced a quenching rate of −0.89 ± 0.05% Fo/s (n = 3, Figure 3A). […]
To study directly the divalent ion influx through the SOCC with selected 2-APB analogs, we performed Mn^2+ quenching experiments. Mn^2+ ions bind to Indo-1 and quench the 430 nm emission wavelength fluorescence after excitation at 360 nm. The decrease of fluorescence is directly dependent on Mn^2+ entry through SOCC. […] After 60 s a 2-APB analog was added as indicated and the change in the curve slope was measured.

Jurkat cells = test: TUNEL apoptosis assay in Jurkat cells
Procedure: (§1) To verify the mechanism of cell death induced by compound P11, we next performed caspase-3 activity assays using the fluorogenic Ac-DEVD-AFC substrate as well as a TUNEL assay.
We measured the apoptosis levels in Jurkat cells by the “in situ cell death detection” kit (Roche Applied Science, Meylan, France). Briefly, 50,000 cells/well were seeded in a 96-well plate and treated with or without 10 µg/mL PHA and 0 to 1 µM P11 for 6, 12, or 24 h. Cells were spun, fixed, and permeabilized according to the manufacturer’s instructions and the terminal transferase dUTP Nick end labelling reaction was performed in the dark during 60 min at 37 °C. For visualization of the results, an epifluorescence microscope (Axioskop, Karl Zeiss, Le Pecq, France) was used at an excitation wavelength of 488 nm, and an emission wavelength of 545 nm. Cells were also loaded with 4’,6’ –diamidino-2-phenylindole (DAPI) to visualize the nuclei. Total cell number (>200) and TUNEL-positive cells were counted in several fields (>5) and the ratio of apoptotic cells was calculated. This experiment was repeated three times.

[2] = test system: caspase-3 activity in Jurkat cells; test: Fluorometric caspase-3 activity assay (Ac-DEVD-AFC) in Jurkat cells
Procedure: as §1
Caspase-3 activity was measured using the fluorogenic substrate Ac-DEVD-AFC (Tebu-bio, Le Perray-en-Yvelines, France) according to the manufacturer’s instructions. Briefly, 48-well plates were seeded with 10^6 Jurkat T cells per well. Cells were then incubated for 24 h with 0, 1, or 10 µg/mL PHA and 0 to 1 µM P11 in complete culture medium. After 24 h, cells were collected and lysed in RIPA lysis buffer supplemented with protease inhibitor cocktails (Life Science Biorad, Marnes la Coquette, France). The protein samples were quantified using the DC protein assay reagent (Biorad, Les Ulis, France). Cell lysates (50 µg) were diluted with reaction buffer (200 mM Hepes pH 7.4, 1 mM EDTA, 20% sucrose and 20 mM dithiothreitol) and incubated with the fluorogenic substrate (20 µM final concentration) for 45 min up to 7 h at 37 °C. The release of 7-amino-4-trifluoromethylcoumarin (AFC) was measured by fluorescence (excitation at 405 nm, emission at 505 nm) using a Victor3 plate reader (Perkin Elmer, Courtaboeuf, France).

2-(dibiphenyl-4-ylboryloxy)ethanamine [P11]
concentration of complete/full SOCE inhibition (Jurkat cell SOCE): below 1 µM | Ki (Jurkat cell SOCE; read-out: Ki (nM), inhibition constant on SOCE): ~75 nM and 75 nM | Ki (Jurkat cell SOCE; read-out: Ki (µM), inhibition constant on SOCE): < 1000 nM | concentration at which SOCE is totally blocked (Jurkat cell SOCE; Figure 2B): > 100 nM | blockade of Mn2+ quenching rate [1]: ≈ 90% | Indo-1 quenching rate by Mn2+ ([1]; added 30 s prior to 100 µM MnCl2): -0.09 ± 0.01 % Fo/s | apoptotic cells (TUNEL) (Jurkat cells; 1 µM P11 alone, 24 h): ~ 5% | cells with fragmented DNA (TUNEL) (Jurkat cells; 10 µg/mL PHA + 1 µM P11, 24 h): 17.9 ± 1.2% | fold increase of cells with fragmented DNA (Jurkat cells; PHA + P11 at concentrations > 10 nM, vs resting conditions): ≈ 4.5 fold | fold increase of apoptotic cells (Jurkat cells; costimulation PHA + P11 > 10 nM, vs PHA alone (Figure 7 legend)): ≈ 1.5 fold | caspase-3 activity ([2]; 10 µg/mL PHA + 1 µM P11, 24 h): 3332 ± 113 AU | caspase-3 activity, compound alone ([2]; P11 alone, up to 1 µM): did not induce any increase | concentration giving maximal activating effect on caspase-3 activity ([2]; with 10 µg/mL PHA, 24 h): 10 nM
